Test system: androgen receptor (AR) in LNCaP and/or VCaP cells
Assay: Androgen Receptor ELISA assay (AR degradation)
Format: cell-based
Details: LNCaP and/or VCaP cells; 5 hours incubation; media with R1881; read-out: DC50 Code* (degradation of AR ELISA)
In short: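 VCaP cells grown ≥3 days, then treated 5 h with compound in media containing 1 nM R1881 (10× stock). Cells lysed and AR quantified by sandwich ELISA (mouse AR detection Ab, HRP anti-mouse, TMB). DC50 and Dmax derived from AR degradation.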

DC50, < 1 nM:
N#Cc1ccc(O[C@H]2CC[C@H](NC(=O)c3cnc(N4CCC(CN(C5COC5)[C@H]5C[C@H](Oc6ccc7c(c6)CN(C6CCC(=O)NC6=O)C7=O)C5)CC4)cn3)CC2)cc1Cl (stereo partly shown) [Compound 21, N-((1r,4r)-4-(3-chloro-4-cyanophenoxy)cyclohexyl)-5-(4-((((1r,3r)-3-((2-(2,6-dioxopiperidin-3-yl)-1-oxoisoindolin-5-yl)oxy)cyclobutyl) (oxetan-3-yl)amino)methyl)piperidin-1-yl)pyrazine-2-carboxamide]
COc1cc(O[C@H]2CC[C@H](NC(=O)c3cnc(N4CC(CN(C(C)C)[C@H]5CC[C@H](Oc6ccc7c(c6)C(=O)N(C6CCC(=O)NC6=O)C7=O)CC5)C4)cn3)CC2)ccc1C#N (stereo partly shown) [Compound 22, N-((1r,4r)-4-(4-cyano-3-methoxyphenoxy)cyclohexyl)-5-(3-((((1r,4r)-4-((2-(2,6-dioxopiperidin-3-yl)-1,3-dioxoisoindolin-5-yl)oxy)cyclohexyl) (isopropyl)amino)methyl)azetidin-1-yl)pyrazine-2-carboxamide]
COc1cc(O[C@H]2C[C@H](N(CC3CCN(c4cnc(C(=O)N[C@H]5CC[C@H](Oc6cc(C)c(C#N)c(C)c6)CC5)cn4)CC3)C(C)=O)C2)cc2c1C(=O)N(C1CCC(=O)NC1=O)C2=O (stereo partly shown) [Compound 23, N-((1r,4r)-4-(4-cyano-3,5-dimethylphenoxy)cyclohexyl)-5-(4-((N-((1r,3r)-3-((2-(2,6-dioxopiperidin-3-yl)-7-methoxy-1,3-dioxoisoindolin-5-yl)oxy)cyclobutyl)acetamido)methyl)piperidin-1-yl)pyrazine-2-carboxamide]
COCCN(CC1CCN(c2cnc(C(=O)N[C@H]3CC[C@H](Oc4ccc(C#N)c(Cl)c4)CC3)cn2)CC1)[C@H]1C[C@H](Oc2ccc3c(c2)C(=O)N(C2CCC(=O)NC2=O)C3)C1 (stereo partly shown) [Compound 24, N-((1r,4r)-4-(3-chloro-4-cyanophenoxy)cyclohexyl)-5-(4-((((1r,3r)-3-((2-(2,6-dioxopiperidin-3-yl)-3-oxoisoindolin-5-yl)oxy)cyclobutyl)(2-methoxyethyl)amino)methyl)piperidin-1-yl)pyrazine-2-carboxamide]
Cc1cc(O[C@H]2CC[C@H](NC(=O)c3cnc(N4CCC(CN(C(C)C)[C@H]5C[C@H](Oc6ccc7c(c6)C(=O)N(C6CCC(=O)NC6=O)C7=O)C5)CC4)cn3)CC2)cc(C)c1C#N (stereo partly shown) [Compound 25, N-((1r,4r)-4-(4-cyano-3,5-dimethylphenoxy)cyclohexyl)-5-(4-((((1r,3r)-3-((2-(2,6-dioxopiperidin-3-yl)-1,3-dioxoisoindolin-5-yl)oxy)cyclobutyl) (isopropyl)amino)methyl)piperidin-1-yl)pyrazine-2-carboxamide]
CC(C)N(CC1CCN(c2ncc(C(=O)N[C@H]3C(C)(C)[C@H](Oc4ccc(C#N)c(Cl)c4)C3(C)C)cn2)CC1)[C@H]1CC[C@H](Oc2ccc3c(c2)C(=O)N(C2CCC(=O)NC2=O)C3=O)CC1 (stereo partly shown) [Compound 26, N-((1r,3r)-3-(3-chloro-4-cyanophenoxy)-2,2,4,4-tetramethylcyclobutyl)-2-(4-((((1r,4r)-4-((2-(2,6-dioxopiperidin-3-yl)-1,3-dioxoisoindolin-5-yl)oxy)cyclohexyl) (isopropyl)amino)methyl)piperidin-1-yl)pyrimidine-5-carboxamide]
COc1cc(O[C@H]2CC[C@H](NC(=O)c3cnc(N4CC5(CC(CN(C(C)C)[C@H]6C[C@H](Oc7ccc8c(c7)CN(C7CCC(=O)NC7=O)C8=O)C6)C5)C4)cn3)CC2)ccc1C#N (stereo partly shown) [Compound 27, N-((1r,4r)-4-(4-cyano-3-methoxyphenoxy)cyclohexyl)-5-(6-((((1r,3r)-3-((2-(2,6-dioxopiperidin-3-yl)-1-oxoisoindolin-5-yl)oxy)cyclobutyl) (isopropyl)amino)methyl)-2-azaspiro[3.3]heptan-2-yl)pyrazine-2-carboxamide]

From patent US20260053932A1, “COMPOUNDS AND METHODS FOR THE TARGETED DEGRADATION OF ANDROGEN RECEPTOR AND ASSOCIATED METHODS OF USE” (Arvinas Operations, Inc., priority 2020, published 2026)
